# Test results from US20230130102A1, “Na/K-ATPase LIGANDS AND USE THEREOF FOR TREATMENT OF CANCER” (Marshall University Research Corporation, priority 2019, published 2023).
# Experiments:
# [1] = biological target: T1, α1 NKA/Src receptor complex (Sus scrofa, UniProt P05024); assay: ouabain-induced Src/ERK activation in LLC-PK1 cells (immunostaining, Western blot); type: cell-based, pig; details: baseline
# T1 construct: endogenous in cells; host or cells: LLC-PK1
# Protocol: Western blot, Immunoprecipitation and Immunostaining. Cells were grown to 100% confluency and Western blot were performed as described before. Images were quantified with ImageJ software from NIH. Immunoprecipitation studies were performed as described before. α1 NKA immunostaining was performed by growing cells on sterilized coverslips in 6 well tissue culture plates and permeabilization/fixation with ice-cold methanol followed by blocking with 5% horse serum and 0.1% Triton X-100 in 1× Phosphate buffered saline (PBS) for 30 minutes. Coverslips were then stained with an anti-α1 NKA antibody (Millipore, Cat #05-369) at 1:100 dilution in 1% BSA (Bovine Serum Albumin) containing 1×PBS solution for overnight. Next day after three washes, coverslips were stained with Alexa Fluor 488 conjugated anti-mouse secondary antibody (Thermo-Fisher) for 1 hour, washed extensively and then imaged using a fluorescent microscope with GFP filter or confocal microscope (LEICA-DMIRE2). E-cadherin and occludin immunostaining was performed in a similar manner. Phospho-Src, phospho ERK1/2 immunostaining were performed as described before and images were taken with a LEICA DMIRE2 confocal microscope.
# Characterization of MB5 activity on the NKA receptor function known as the NKA/Src binary receptor mechanism was conducted in a pig kidney epithelial cells (LLC-PK1)-based platform using immunostaining and Western blot analyses. […] The change of NKA conformation that occurs upon binding of agonists such as ouabain, results in the release and activation of the Src kinase domain from the “Naktide” site of NKA CD3, while the other interaction (constitutive) persists between NKA CD2 and the SH2 domain of Src. […] In LLC-PK1-derived cells with low NKA receptor constitutive activity due to substantial reduction (over 80%) of α1 NKA expression by siRNA (PY17 cells), increased basal Src and ERK activity is observed due to the abnormally high amount of Src kinase that remains in an active conformation. […]
# YFP-tagged α1 NKA = biological target: T2, YFP-tagged α1 NKA (Rattus norvegicus, UniProt P06685); assay: ouabain-induced α1 NKA endocytosis in YFP-α1-TCN cells; type: cell-based; details: TCN-YFP α1 cells
# T2 construct: expressed in transfected cells; host or cells: YFP-α1-TCN cells
# Protocol: It is appreciated that ouabain induces Src/ERK activation (increased protein phosphorylation) of LLC-PK1 cells by binding to α1 NKA and thereby initiates a signaling cascade which results in the endocytosis of the α1 NKA to terminate the signaling.
# α1 NKA endocytosis assay. Endocytosis assay was performed as described before.
# Characterization of MB5 activity on the NKA receptor function known as the NKA/Src binary receptor mechanism was conducted in a pig kidney epithelial cells (LLC-PK1)-based platform using immunostaining and Western blot analyses. […] The change of NKA conformation that occurs upon binding of agonists such as ouabain, results in the release and activation of the Src kinase domain from the “Naktide” site of NKA CD3, while the other interaction (constitutive) persists between NKA CD2 and the SH2 domain of Src.
# α1 NKA/Src receptor = assay: multi-step assay of MB5 derivatives (NKA and E-cadherin expression, 3D-spheroid invasion); type: cell-based; details: for potency relative to MB5: ability to restore NKA and E-cadherin expression and 3D-spheroid invasion data
# Excerpt: A multi-step assay was further designed to identify which compounds among the MB5 derivatives could be developed as an anti-cancer agent in terms of their potential to stop tumor invasion and growth. This multi-step assay included: (A) an ATPase activity assay- to confirm the binding of derivatives to NKA; (B) an assay to measure inhibition of ouabain-induced ERK activation and NKA endocytosis as well as basal Src/ERK/endocytotic activity in PY-17 cells (NKA/Src inverse agonist); (C) an assay to measure the ability to increase the expression of α1 NKA and E-cadherin level and decrease mesenchymal markers (ZEB1, SNAIL, vimentin) and Myc in cancer cells; (D) a 3D culture to test the anti-invasive and anti-growth potential of spheroids; and (E) an in vivo tumor xenograft model (by transplantation into NOD/SCOD mice). Upon analysis of the results of these experiments, it was believed that some of the MB5 derivative compounds show better or similar properties than MB5 as shown for certain of the compounds in FIGS. 6A-6G. Examples of experiments testing the derivatives are further provided for MIIRMB5 D1 (FIGS. 7A-7B), MIIRMB5 D3 (FIGS. 8A-8C), MIIRMB5 D4 (FIGS. 9A-9C), MIIRMB5 D5 (FIGS. 10A-10C), MIIRMB5 D6 (FIGS. 11A-11C), MIIRMB5 D7 (FIGS. 12A-12B), MIIRMB5 D13 (FIGS. 13A-13C), MIIRMB5 D14 (FIGS. 14A-14C), and MIIRMB5 D15 (FIGS. 15A-15C).
# DU145 derived subclones = assay: Western blot / immunostaining of EMT markers, Src/FAK activation and proliferation markers in DU145 derived subclones; type: cell-based, human; details: subclone 2 cells, PP2 treatment (24 hours)
compound,measurement,setting,value
"C[C@@H]1O[C@@H](O[C@H]2C[C@@H](O)[C@]3(CO)[C@H]4[C@H](O)C[C@]5(C)[C@@H](C6=CC(=O)OC6)CC[C@]5(O)[C@@H]4CC[C@]3(O)C2)[C@H](O)[C@H](O)[C@H]1O [ouabain, reference compound]",ERK activation / NKA receptor function by the compound alone,[1],activated ERK signal
same,α1 NKA internalization (endocytosis) by the compound alone,YFP-tagged α1 NKA,induced α1 NKA internalization (endocytosis)
O=S1(=O)c2cccc(O)c2Oc2c1ccc(O)c2O [MIIRMB5 D13],effective concentration / dosage,"α1 NKA/Src receptor; NKA and E-cadherin expression, 3D-spheroid invasion",about 100 nM
Nc1c(O)ccc2c(=O)c3cccc(O)c3oc12 [MIIRMB5 D4],potency relative to MB5,α1 NKA/Src receptor,about 10 fold
"CC(C)(C)n1nc(-c2ccc(Cl)cc2)c2c(N)ncnc21 [PP2, reference compound]",E-cadherin expression,DU145 derived subclones,increase in E-cadherin expression
O=c1[nH]c2c(ccc3c(=O)c4cccc(O)c4oc32)o1 [MIIRMB5 D3],potency relative to MB5,α1 NKA/Src receptor,about 10 fold
